Laboratory results from patent US20070253942A1, “Lectin-directed prodrug delivery system” (Isis Innovation Limited, priority 2001, published 2007).
One block for each compound: values may come before it.

Experiment: Tritosomal stability of p-nitrophenyl glycosides
Format: in vitro ADME, rat
Conditions: for Readings from spectrometer, absorbance at 410 nm, Assay 1 / Readings from spectrometer, absorbance at 410 nm, Assay 2: rat, pH 5.5; for tritosomal cleavage (production of p-nitrophenol, absorbance at 410 nm): substrate 31.0 mg/ml in DMSO, 37° C., after 20 hours
Excerpt: One essential facet of the LEAPT concept is that the rhamnoside-capped prodrugs will be cleaved only by the selectively delivered naringinase construct. To ensure that this is possible, a lysosomal tritosome preparation was used to assess the potential cleavage of α-L-rhamnopyranosides by enzymes in the hepatocytes. p-Nitrophenyl α-L-rhamnopyranoside was used as a chromogenic prodrug mimic. If there are enzymes present in the hepatocytes capable of cleaving α-L-rhamnopyranosidic linkages, this would be detected over an extended assay by the production of p-nitrophenol. Assay conditions based on those used in 2.2.4 were recreated with the used of pNP-α-L-Rha instead of the protease substrate. The mixture was incubated at 37° C. and the absorbance at 410 nm recorded every 5 minutes.
With the concentration of pNP-α-L-Rha increased ten-fold, the tritosomal stability of rhamnopyranosides was reassessed.
Further assessments of the glycosidic enzymes present in the tritosomal preparation were required to allow further design of prodrugs. An assay equivalent to 2.8.7 was used to assess β-D-galactopyranosidic activity.
Further assessments of the glycosidic enzymes present in the tritosomal preparation were required to allow further design of prodrugs. An assay equivalent to 2.3.7 was used to assess β-D-glucopyranosidic activity.
A stock solution of p-nitrophenyl α-L-rhamnopyranoside in DMSO (3.1 mg/ml, equivalent to BzPheValArgNap solution) was used in an assay equivalent to 2.8.4.
As no activity against α-L-rhamnopyranosides was detected in the previous assay, a higher concentration of pNPαL-Rha (31.0 mg/ml) in DMSO was used in an otherwise identical assay. In addition, the cuvette was incubated at 37° C. for 20 hours and the absorbance reading repeated.
A stock solution of p-nitrophenyl β-D-galactopyranoside in DMSO (31.0 mg/ml) was used in an assay equivalent to 2.8.7. In addition, the cuvette was incubated at 37° C. for 20 hours and the absorbance reading repeated.
A stock solution of p-nitrophenyl β-D-glucopyranoside in DMSO (31.0 mg/ml) was used in an assay equivalent to 2.8.7. In addition, the cuvette was incubated at 37° C. for 20 hours and the absorbance reading repeated.

Readings from spectrometer, absorbance at 410 nm, Assay 1 (0 min, 0.093 mg/ml): 0.158
Readings from spectrometer, absorbance at 410 nm, Assay 2 (0 min, 0.093 mg/ml): 0.160
Readings from spectrometer, absorbance at 410 nm, Assay 1 (0 min, 0.93 mg/ml): 0.173
Readings from spectrometer, absorbance at 410 nm, Assay 2 (0 min, 0.93 mg/ml): 0.172
Readings from spectrometer, absorbance at 410 nm, Assay 1 (5 min, 0.093 mg/ml): 0.155
Readings from spectrometer, absorbance at 410 nm, Assay 2 (5 min, 0.093 mg/ml): 0.159
Readings from spectrometer, absorbance at 410 nm, Assay 1 (5 min, 0.93 mg/ml): 0.169
Readings from spectrometer, absorbance at 410 nm, Assay 2 (5 min, 0.93 mg/ml): 0.170
Readings from spectrometer, absorbance at 410 nm, Assay 1 (10 min, 0.093 mg/ml): 0.153
Readings from spectrometer, absorbance at 410 nm, Assay 2 (10 min, 0.093 mg/ml): 0.159
Readings from spectrometer, absorbance at 410 nm, Assay 1 (10 min, 0.93 mg/ml): 0.166
Readings from spectrometer, absorbance at 410 nm, Assay 2 (10 min, 0.93 mg/ml): 0.167
Readings from spectrometer, absorbance at 410 nm, Assay 1 (15 min, 0.093 mg/ml): 0.151
Readings from spectrometer, absorbance at 410 nm, Assay 2 (15 min, 0.093 mg/ml): 0.158
Readings from spectrometer, absorbance at 410 nm, Assay 1 (15 min, 0.93 mg/ml): 0.165
Readings from spectrometer, absorbance at 410 nm, Assay 2 (15 min, 0.93 mg/ml): 0.166
Readings from spectrometer, absorbance at 410 nm, Assay 1 (20 min, 0.093 mg/ml): 0.150
Readings from spectrometer, absorbance at 410 nm, Assay 2 (20 min, 0.093 mg/ml): 0.159
Readings from spectrometer, absorbance at 410 nm, Assay 1 (20 min, 0.93 mg/ml): 0.162
Readings from spectrometer, absorbance at 410 nm, Assay 2 (20 min, 0.93 mg/ml): 0.164
Readings from spectrometer, absorbance at 410 nm, Assay 1 (25 min, 0.093 mg/ml): 0.150
Readings from spectrometer, absorbance at 410 nm, Assay 2 (25 min, 0.093 mg/ml): 0.157
Readings from spectrometer, absorbance at 410 nm, Assay 1 (25 min, 0.93 mg/ml): 0.161
Readings from spectrometer, absorbance at 410 nm, Assay 2 (25 min, 0.93 mg/ml): 0.165
Readings from spectrometer, absorbance at 410 nm, Assay 1 (30 min, 0.093 mg/ml): 0.149
Readings from spectrometer, absorbance at 410 nm, Assay 2 (30 min, 0.093 mg/ml): 0.157
Readings from spectrometer, absorbance at 410 nm, Assay 1 (30 min, 0.93 mg/ml): 0.158
Readings from spectrometer, absorbance at 410 nm, Assay 2 (30 min, 0.93 mg/ml): 0.163
Readings from spectrometer, absorbance at 410 nm, Assay 1 (20 h, 0.93 mg/ml): 0.138
Readings from spectrometer, absorbance at 410 nm, Assay 2 (20 h, 0.93 mg/ml): 0.131
Structure (SMILES): C[C@@H]1O[C@@H](Oc2ccc([N+](=O)[O-])cc2)[C@H](O)[C@H](O)[C@H]1O [pNP-α-L-Rha, p-Nitrophenyl α-L-rhamnopyranoside]

Structure (SMILES): O=[N+]([O-])c1ccc(O[C@@H]2O[C@H](CO)[C@H](O)[C@H](O)[C@H]2O)cc1 [pNP-β-D-Gal, p-nitrophenyl β-D-galactopyranoside]
tritosomal cleavage (production of p-nitrophenol, absorbance at 410 nm): significant amount of p-nitrophenol had been released

Structure (SMILES): O=[N+]([O-])c1ccc(O[C@@H]2O[C@H](CO)[C@@H](O)[C@H](O)[C@H]2O)cc1 [pNP-β-D-Glc, p-nitrophenyl β-D-glucopyranoside]
tritosomal cleavage (production of p-nitrophenol, absorbance at 410 nm): significant amount of p-nitrophenol had been released
